# Where a name gives a salt, the structure may show the parent alone. Read-outs that look alike come from different tables or passages of the source.
# Assays:
# [1] = biological target: GST-Syk Full Protein (human) (Homo sapiens, UniProt P43405); test: Syk kinase inhibition test (HTRF method); type: biochemical
# Method in brief: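 HTRF read-out: after EDTA termination and 1 h with XL665-streptavidin and Eu-anti-phosphotyrosine, the 665/620 nm ratio was measured. The reaction ran 30 min at 20–25 °C with final 6.4 nM human GST-Syk, 250 nM biotinylated peptide, 100 μM ATP, pH 7.0 HEPES buffer, 2% DMSO.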
# [2] = test system: cultured human mast cells; test: Degranulation inhibition test using cultured human mast cells (IgE cross-linking, β-Hexosaminidase release); type: cell-based; conditions: Mast cell, cultured human mast cells, read-out: human degranulation ave. IC50
# Method in brief: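 Degranulation was triggered by anti-hIgE (10 μg/mL final, 30 min, 37 °C) after a 10-min compound pretreatment (DMSO 0.1%) of cord-blood CD34+-derived mast cells primed 5 days with IL-4 and IgE. β-Hexosaminidase in supernatant was measured with p-nitrophenyl-GlcNAc substrate (A405), expressed against water-lysed total; IC50 (M).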
# [3] = Tables 1-x, compounds A, read-out: sykHTRF ave IC50
# [4] = HTRF, 100 μM ATP, 30 min room temperature, average, read-out: sykHTRF ave IC50
# [5] = anti-hIgE stimulation, β-Hexosaminidase index, average
# [6] = Tables 2-x, thiophene compounds B, read-out: sykHTRK ave IC50
# [7] = Tables 2-x, thiophene compounds B
SMILES,"IC50 [1, 3] [nM]","IC50 ([2]; Tables 1-x, compounds A) [nM]","IC50 [1, 4] [nM]","IC50 [2, 5] [nM]",further results
"Cc1ccnc(Nc2cccc(-c3cnc(N(CC(N)=O)C[C@H]4CC[C@H](C(=O)O)CC4)s3)n2)c1 [Compound A-599, trans-4-[(N-carbamoylmethyl-N-{5-[6-(4-methylpyridin-2-ylamino)pyridin-2-yl]thiazol-2-yl}amino)methyl]cyclohexanecarboxylic acid]",< 100,> 1000,,,
"Cc1ccnc(Nc2cccc(-c3cnc(CCCCCN)s3)n2)c1 [Compound A-128, 5-{5-[6-(4-methylpyridin-2-ylamino)pyridin-2-yl]thiazol-2-yl}pentylamine]",,,< 100,> 1000,
"Cc1ccnc(Nc2cccc(-c3cnc(C4CCC(CC(=O)O)CC4)s3)n2)c1 (centres unmarked) [Compound A-595, (4-{5-[6-(4-methylpyridin-2-ylamino)pyridin-2-yl]thiazol-2-yl}cyclohexyl)acetic acid hydrochloride]",< 100,100 to 1000,,,
COc1cc(Nc2cccc(-c3sc(NC(C)=O)nc3C)n2)ncn1 [Compound A-22],,,100 to 1000,> 1000,
CON(C)C(=O)[C@H]1CC[C@H](c2ncc(-c3cccc(Nc4cc(C)ccn4)n3)s2)CC1 [Compound A-265],,,100 to 1000,100 to 1000,
Cc1ccnc(Nc2cccc(-c3cnc(C(=O)NC4CCCCC4O)s3)n2)c1 (centres unmarked) [Compound A-67],,,100 to 1000,> 1000,
"CC(=O)N1CCC(N(CC(F)(F)F)c2ncc(-c3cccc(Nc4cc(C)ccn4)n3)s2)CC1 [Compound A-535, 1-{4-[N-{5-[6-(4-methylpyridin-2-ylamino)pyridin-2-yl]thiazol-2-yl}-N-(2,2,2-trifluoroethyl)amino]piperidin-1-yl}ethanone]",< 100,> 1000,,,
"Cc1ccnc(Nc2cccc(-c3cnc([C@@H]4CNC(=O)O4)s3)n2)c1 [Compound A-409, (S)-5-{5-[6-(4-methylpyridin-2-ylamino)pyridin-2-yl]thiazol-2-yl}oxazolidin-2-one]",< 100,< 100,,,
CC(=O)N1CCN(C(=O)[C@H]2CC[C@H](c3ncc(-c4cccc(Nc5cc(C)ccn5)n4)s3)CC2)CC1 [Compound A-289],,,100 to 1000,> 1000,
"C/C(=N\O)c1ccc(-c2cccc(Nc3cc(Cl)ccn3)n2)s1 [Compound B-75, 1-{5-[6-(4-chloropyridin-2-ylamino)pyridin-2-yl]thiophen-2-yl}ethanone oxime]",,,,,"IC50 [1, 6]: < 100 nM; IC50 [2, 7]: 100 to 1000 nM"
"Cc1ccnc(Nc2cccc(-c3cnc(N4CCOCC4)s3)n2)c1 [Compound A-417, N-(4-methylpyridin-2-yl)-N-[6-(2-morpholin-4-ylthiazol-5-yl)pyridin-2-yl]amine]",< 100,100 to 1000,,,
Cc1ccnc(Nc2cccc(-c3cnc([C@@H]4COC(C)(C)O4)s3)n2)c1 [Compound A-365],,,100 to 1000,100 to 1000,
CCOC(=O)Cc1ccnc(Nc2cccc(-c3cnc([C@@H]4CCC(=O)N4)s3)n2)c1 [Compound A-332],,,100 to 1000,100 to 1000,
"CC(=O)c1ccc(-c2cccc(Nc3cc(OC(C)C)ncn3)n2)s1 [Compound B-30, 1-{5-[6-(6-isopropoxypyrimidin-4-ylamino)pyridin-2-yl]thiophen-2-yl}ethanone]",,,,,"IC50 [1, 6]: < 100 nM; IC50 [2, 7]: > 1000 nM"
CNC(=O)COCc1ncc(-c2cccc(Nc3cc(C)ccn3)n2)s1 [Compound A-367],,,100 to 1000,100 to 1000,
"CC(=O)N[C@@H](C)c1ncc(-c2cccc(Nc3cc(Cl)ccn3)n2)s1 [Compound A-81, N—((S)-1-{5-[6-(4-chloropyridin-2-ylamino)pyridin-2-yl]thiazol-2-yl}ethyl)acetamide]",,,< 100,100 to 1000,
"CC(=O)N(C)[C@@H](C)c1ncc(-c2cccc(Nc3cc(C)ccn3)n2)s1 [Compound A-52, N-methyl-((S)-1-{5-[6-(4-methylpyridin-2-ylamino)pyridin-2-yl]thiazol-2-yl}ethyl)acetamide]",,,< 100,100 to 1000,
"Cc1ccnc(Nc2cccc(-c3cnc(N(C)C(C)(C)c4ccc(C(=O)O)cc4)s3)n2)c1 [Compound A-616, 4-[1-methyl-1-(N-methyl-N-{5-[6-(4-methylpyridin-2-ylamino)pyridin-2-yl]thiazol-2-yl}amino)ethyl]benzoic acid dihydrochloride]",< 100,100 to 1000,,,
"Cc1ccnc(Nc2cccc(-c3cnc(N(C)Cc4ccc(O)cc4)s3)n2)c1 [Compound A-471, 4-[(N-methyl-N-{5-[6-(4-methylpyridin-2-ylamino)pyridin-2-yl]thiazol-2-yl}amino)methyl]phenol]",< 100,100 to 1000,,,
"Cc1ccnc(Nc2cccc(-c3cnc(N4CC[C@@H](N)C4)s3)n2)c1 [Compound A-473, (R)-1-{5-[6-(4-methylpyridin-2-ylamino)pyridin-2-yl]thiazol-2-yl}pyrrolidin-3-ylamine]",< 100,> 1000,,,

SMILES,"IC50 [1, 3] [nM]","IC50 ([2]; Tables 1-x, compounds A) [nM]","IC50 [1, 4] [nM]","IC50 [2, 5] [nM]",further results
CC(=O)N[C@@H](Cc1ccccc1)c1ncc(-c2cccc(Nc3cc(C)ccn3)n2)s1 [Compound A-41],,,100 to 1000,> 1000,
Cc1ccnc(Nc2cccc(-c3cnc([C@H](C)N(C)C(=O)OC(C)(C)C)s3)n2)c1 [Compound A-50],,,100 to 1000,> 1000,
"Cc1ccnc(Nc2cccc(-c3ccc(CO)s3)n2)c1 [Compound B-12, {5-[6-(4-methylpyridin-2-ylamino)pyridin-2-yl]thiophen-2-yl}methanol]",,,,,"IC50 [1, 6]: < 100 nM; IC50 [2, 7]: 100 to 1000 nM"
Cc1ccnc(Nc2cccc(-c3cnc([C@@H]4CN(C)C(=O)O4)s3)n2)c1 [Compound A-405],100 to 1000,100 to 1000,,,
"CC(=O)N(C)c1ncc(-c2cccc(Nc3cc(C)ccn3)n2)s1 [Compound A-424, N-methyl-N-{5-[6-(4-methylpyridin-2-ylamino)pyridin-2-yl]thiazol-2-yl}acetamide]",,,< 100,100 to 1000,
"CC(=O)NCC(=O)N1CCC(N(C)c2ncc(-c3cccc(Nc4cc(C)ccn4)n3)s2)CC1 [Compound A-461, N-{2-[4-(N′-methyl-N′-{5-[6-(4-methylpyridin-2-ylamino)pyridin-2-yl]thiazol-2-yl}amino)piperidin-1-yl]-2-oxoethyl}acetamide]",< 100,100 to 1000,,,
COC(=O)N[C@@H](C)c1ncc(-c2cccc(Nc3cc(C)ccn3)n2)s1 [Compound A-57],,,100 to 1000,100 to 1000,
"CC(=O)N1CC[C@@H](N(C)c2ncc(-c3cccc(Nc4cc(C)ccn4)n3)s2)C1 [Compound A-563, 1-[(R)-3-(N-methyl-N-{5-[6-(4-methylpyridin-2-ylamino)pyridin-2-yl]thiazol-2-yl}amino)pyrrolidin-1-yl]ethanone]",< 100,100 to 1000,,,
Cc1ccnc(Nc2cccc(-c3cnc([C@@H](NC(=O)OC(C)(C)C)C(C)C)s3)n2)c1 [Compound A-36],,,> 1000,> 1000,
CC(=O)NC1CCN(C(=O)[C@H]2CC[C@H](c3ncc(-c4cccc(Nc5cc(C)ccn5)n4)s3)CC2)C1 (some centres unmarked) [Compound A-284],,,100 to 1000,100 to 1000,
Cc1ccnc(Nc2cccc(-c3cnc(C(C)(C)N)s3)n2)c1 [Compound A-113],,,100 to 1000,100 to 1000,
"CC(=O)NCCN(C)c1ncc(-c2cccc(Nc3cc(C)ccn3)n2)s1 [Compound A-508, N-[2-(N′-methyl-N′-{5-[6-(4-methylpyridin-2-ylamino)pyridin-2-yl]thiazol-2-yl}amino)ethyl]acetamide]",< 100,100 to 1000,,,
Cc1ccnc(Nc2cccc(-c3cnc([C@H](C)NC(=O)C4CCC(O)CC4)s3)n2)c1 (some centres unmarked) [Compound A-349],,,100 to 1000,> 1000,
"O=C1CC[C@@H](c2ncc(-c3cccc(Nc4cc(Cl)ccn4)n3)s2)N1 [Compound A-323, (S)-5-{5-[6-(4-chloropyridin-2-ylamino)pyridin-2-yl]thiazol-2-yl}pyrrolidin-2-one]",,,< 100,< 100,
"Cc1ccnc(Nc2cccc(-c3cnc(N4CCC(c5noc(=O)[nH]5)CC4)s3)n2)c1 [Compound A-450, 3-(1-{5-[6-(4-methylpyridin-2-ylamino)pyridin-2-yl]thiazol-2-yl}piperidin-4-yl)-4H-[1,2,4]oxadiazole-5-one]",< 100,> 1000,,,
Cc1ccnc(Nc2cccc(-c3cnc(CCc4ccc(NS(C)(=O)=O)cc4)s3)n2)c1 [Compound A-221],,,100 to 1000,> 1000,
"Cc1ccnc(Nc2cccc(-c3cnc(N4CCC(C)(C(=O)NCCO)CC4)s3)n2)c1 [Compound A-503, N-(2-hydroxyethyl)-4-methyl-1-{5-[6-(4-methylpyridin-2-ylamino)pyridin-2-yl]thiazol-2-yl}-piperidine-4-carboxamide]",< 100,100 to 1000,,,
CCOC(=O)CC(=O)N[C@@H](C)c1ncc(-c2cccc(Nc3cc(C)ccn3)n2)s1 [Compound A-122],,,> 1000,> 1000,
Cc1ccnc(Nc2cccc(-c3ccc(C(=O)CCO)s3)n2)c1 [Compound B-57],,,,,"IC50 [1, 6]: 100 to 1000 nM; IC50 [2, 7]: 100 to 1000 nM"
Cc1ccnc(Nc2cccc(-c3cnc([C@H]4CC[C@H](C(=O)N5CCC(N(C)C)C5)CC4)s3)n2)c1 (some centres unmarked) [Compound A-287],,,100 to 1000,100 to 1000,
